This is an account of results in BindingDB's records for PubMed 38943600 (China Pharmaceutical University).

The experiment concerns the target Inactive tyrosine-protein kinase transmembrane receptor ROR1 (Homo sapiens, UniProt Q01973). The experiment in a line: Binding affinity to N-terminal His/GST-tagged recombinant human ROR1 (453 to 783 residues) extracted from baculovirus infected insect cells assessed as dissociation constant by SPR analysis. Background: Surface plasmon resonance follows binding to a sensor surface in real time, without labels.

*1 amine or outer side, *2 acyl side, *3 side chain or, on linkers, in order; H or OH if unused. Where a SMILES comes first, the peptide text is derived from it. The star is where a group is joined. ξ: configuration not given here. X6 = Nc1ccn(C2OC(COC(=O)CCCCCN3C(=O)CC(*)C3=O)C(O)C2(F)F)c(=O)n1; C18 diacid = O=C(O)CCCCCCCCCCCCCCCCC(=O)*; ξγGlu = O=C(O)C(CCC(=O)[*:2])N[*:1]; AEEA = NCCOCCOCC(=O)O

Inactive tyrosine-protein kinase transmembrane receptor ROR1, sequence (Q01973 whole entry, the tested form may be a part): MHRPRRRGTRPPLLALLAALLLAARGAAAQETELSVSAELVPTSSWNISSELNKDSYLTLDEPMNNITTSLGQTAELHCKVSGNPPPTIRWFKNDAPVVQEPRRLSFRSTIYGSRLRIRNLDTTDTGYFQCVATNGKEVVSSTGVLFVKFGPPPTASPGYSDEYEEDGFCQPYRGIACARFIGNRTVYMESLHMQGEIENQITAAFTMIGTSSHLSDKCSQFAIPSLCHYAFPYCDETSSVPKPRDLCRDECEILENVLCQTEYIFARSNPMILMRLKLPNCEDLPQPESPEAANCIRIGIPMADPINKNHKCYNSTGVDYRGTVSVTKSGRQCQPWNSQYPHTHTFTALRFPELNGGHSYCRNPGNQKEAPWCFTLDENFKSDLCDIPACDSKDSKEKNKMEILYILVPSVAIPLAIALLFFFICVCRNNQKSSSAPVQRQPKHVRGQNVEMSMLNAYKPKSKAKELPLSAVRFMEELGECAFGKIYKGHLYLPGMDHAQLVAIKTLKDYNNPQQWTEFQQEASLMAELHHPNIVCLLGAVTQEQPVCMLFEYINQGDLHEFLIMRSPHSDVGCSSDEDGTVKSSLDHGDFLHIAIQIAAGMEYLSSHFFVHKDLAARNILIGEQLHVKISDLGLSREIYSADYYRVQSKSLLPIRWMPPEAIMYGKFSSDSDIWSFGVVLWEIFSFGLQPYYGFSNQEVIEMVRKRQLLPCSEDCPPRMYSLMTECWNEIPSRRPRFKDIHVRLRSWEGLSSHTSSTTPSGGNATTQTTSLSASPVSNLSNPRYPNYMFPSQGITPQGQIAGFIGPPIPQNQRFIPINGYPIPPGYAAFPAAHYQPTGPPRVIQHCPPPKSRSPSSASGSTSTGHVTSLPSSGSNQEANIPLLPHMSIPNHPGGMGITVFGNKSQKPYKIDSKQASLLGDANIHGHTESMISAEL

On to `CC[C@H](C)[C@H](NC(=O)[C@H](CC(=O)O)NC(=O)[C@H](CO)NC(=O)CNC(=O)[C@H](CSC1CC(=O)N(CCCCCC(=O)OCC2OC(n3ccc(N)nc3=O)C(F)(F)C2O)C1=O)NC(=O)CNC(=O)[C@H](CCCCN)NC(=O)COCCOCCNC(=O)COCCOCCNC(=O)CCC(NC(=O)CCCCCCCCCCCCCCCCC(=O)O)C(=O)O)C(=O)N[C@@H](CC(N)=O)C(=O)N[C@@H](CC(=O)O)C(=O)N[C@@H](CCCNC(=N)N)C(=O)N[C@@H](CCC(N)=O)C(=O)N[C@H](C(=O)N1CCC[C@H]1C(=O)NCC(=O)N[C@@H](Cc1ccc(O)cc1)C(=O)N[C@@H](CO)C(=O)N[C@H](C(=O)N[C@@H](Cc1ccc(O)cc1)C(=O)N[C@@H](Cc1c[nH]c2ccccc12)C(=O)NCC(=O)N[C@@H](CC(=O)O)C(=O)N[C@@H](Cc1ccccc1)C(N)=O)[C@@H](C)O)[C@@H](C)CC` (stereo partly specified) ({C18 diacid-ξγGlu-AEEA-AEEA}-KGC(X6)GSDINDRQIPGYSTYWGDF-NH2), for which the Kd was found to be 1.2 nM.

By Kd is commonly meant the free concentration of one partner at which half of the binding sites on the other are occupied at equilibrium, for simple one-to-one binding.
